Source: PubChem BioAssay AID256 (DTP/NCI, 2004)
Several values for one entry are separate records, joined by “and”; a condition that tells them apart may be missing. Equal entries are not always repeated. Toxic doses and inconclusive results are not listed. How the source made its calls: active means survival T/C of 150% or more; inactive means T/C below 125% in these data.

Tested on: CD2F1 mice, L1210 leukemia ip, survival T/C
Assay: NCI In Vivo Anticancer Drug Screen. Data for tumor model L1210 Leukemia (intraperitoneal) in CD2F1 (CDF1) mice
Conditions: higher = longer survival
Method in brief: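 Tumor-bearing mice (transplanted tumor) were split into treated and vehicle control groups, and the measured endpoint of each treated group was divided by that of its vehicle controls.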

[1] = endpoint: mean survival time, dose: 100.0 mg/kg/injection, schedule: Q01DX001 (ip), vehicle: saline with Tween-80
[2] = endpoint: mean survival time, dose: 200.0 mg/kg/injection, schedule: Q01DX001 (ip), vehicle: saline with Tween-80
[3] = endpoint: mean survival time, dose: 400.0 mg/kg/injection, schedule: Q01DX001 (ip), vehicle: saline with Tween-80
[4] = endpoint: mean survival time, dose: 100.0 mg/kg/injection, schedule: Q04DX002 (ip), vehicle: saline with Tween-80
[5] = endpoint: mean survival time, dose: 200.0 mg/kg/injection, schedule: Q04DX002 (ip), vehicle: saline with Tween-80

Measured: T/C

COCC(=O)C(C(C)=O)C(c1ccccn1)C(C(C)=O)C(=O)COC (centres undefined)
inactive: endpoint: mean survival time, dose: 12.5 mg/kg/injection, schedule: Q04DX002 (ip), vehicle: saline with Tween-80 96 % of control | endpoint: mean survival time, dose: 25.0 mg/kg/injection, schedule: Q04DX002 (ip), vehicle: saline with Tween-80 96 % of control | endpoint: mean survival time, dose: 50.0 mg/kg/injection, schedule: Q04DX002 (ip), vehicle: saline with Tween-80 104 % of control

Cc1cc(N)ccc1N(c1c(Cl)c(Cl)c(NS(=O)(=O)c2ccccc2)c(Cl)c1Cl)S(=O)(=O)c1ccccc1
inactive: endpoint: mean survival time, dose: 100.0 mg/kg/injection, schedule: Q04DX003 (ip), vehicle: Klucel (hydroxypropylcellulose) (HPC) 95 % of control | endpoint: mean survival time, dose: 200.0 mg/kg/injection, schedule: Q04DX003 (ip), vehicle: Klucel (hydroxypropylcellulose) (HPC) 95 % of control | endpoint: mean survival time, dose: 400.0 mg/kg/injection, schedule: Q04DX003 (ip), vehicle: Klucel (hydroxypropylcellulose) (HPC) 95 % of control

COc1cccc(C(=O)NC[n+]2cccc(O)c2)c1
inactive: [1] 100 % of control | [2] 92 % of control | [3] 88 % of control

O=C(O)c1c[nH]c2ccc([N+](=O)[O-])cc2c1=O
inactive: endpoint: mean survival time, dose: 50.0 mg/kg/injection, schedule: Q01DX001 (ip), vehicle: Klucel (hydroxypropylcellulose) (HPC) 104 % of control | endpoint: mean survival time, dose: 100.0 mg/kg/injection, schedule: Q01DX001 (ip), vehicle: Klucel (hydroxypropylcellulose) (HPC) 120 % of control | [1] 93 % of control | [2] 89 % of control | [3] 86 % of control

CCN(CC)C(=O)Nc1ccc(Cl)cc1
inactive: [4] 104 % of control | [5] 108 % of control

CCOC(=O)N(C)c1ccc(Cl)cc1C(N)=O
inactive: [4] 101 % of control | [5] 97 % of control | endpoint: mean survival time, dose: 400.0 mg/kg/injection, schedule: Q04DX002 (ip), vehicle: saline with Tween-80 118 % of control

O=C(O)C(CO)C(CO)C(=O)O (centres undefined)
inactive: endpoint: mean survival time, dose: 50.0 mg/kg/injection, schedule: Q01DX001 (ip), vehicle: saline 107 % of control | endpoint: mean survival time, dose: 100.0 mg/kg/injection, schedule: Q01DX001 (ip), vehicle: saline 121 % of control | endpoint: mean survival time, dose: 200.0 mg/kg/injection, schedule: Q01DX001 (ip), vehicle: saline 101 % of control | endpoint: mean survival time, dose: 400.0 mg/kg/injection, schedule: Q01DX001 (ip), vehicle: saline 106 % of control

CCCCCCNc1nc(NCCCCCC)c2[nH]c(NCCCCCC)nc2n1
inactive: endpoint: median survival time, dose: 25.0 mg/kg/injection, schedule: Q01DX009 (ip), vehicle: saline with Tween-80 107 % of control | endpoint: median survival time, dose: 50.0 mg/kg/injection, schedule: Q01DX009 (ip), vehicle: saline with Tween-80 107 % of control | endpoint: median survival time, dose: 100.0 mg/kg/injection, schedule: Q01DX009 (ip), vehicle: saline with Tween-80 106 % of control | endpoint: median survival time, dose: 200.0 mg/kg/injection, schedule: Q01DX009 (ip), vehicle: saline with Tween-80 105 % of control

CCOC(=O)Nc1cc(NC(C)CCCN(CC)CC)c2ncc(-c3ccccc3)nc2n1 (centres undefined) (tested in a mixture with another compound)
inactive: endpoint: mean survival time, dose: 25.0 mg/kg/injection, schedule: Q01DX009 (ip), vehicle: saline 89 % of control | endpoint: mean survival time, dose: 25.0 mg/kg/injection, schedule: Q04DX003 (ip), vehicle: saline 98 % of control | endpoint: mean survival time, dose: 50.0 mg/kg/injection, schedule: Q01DX009 (ip), vehicle: saline 94 % of control | endpoint: mean survival time, dose: 50.0 mg/kg/injection, schedule: Q04DX003 (ip), vehicle: saline 98 % of control | endpoint: mean survival time, dose: 100.0 mg/kg/injection, schedule: Q01DX009 (ip), vehicle: saline 95 % of control | endpoint: mean survival time, dose: 100.0 mg/kg/injection, schedule: Q04DX003 (ip), vehicle: saline 108 % of control

Clc1ccc(CN2COc3c(ccc4cccnc34)C2)cc1Cl
inactive: endpoint: mean survival time, dose: 12.5 mg/kg/injection, schedule: Q01DX009 (ip), vehicle: saline with Tween-80 95 % of control and 97 % of control | endpoint: mean survival time, dose: 25.0 mg/kg/injection, schedule: Q01DX009 (ip), vehicle: saline with Tween-80 92 % of control and 105 % of control | endpoint: mean survival time, dose: 50.0 mg/kg/injection, schedule: Q01DX009 (ip), vehicle: saline with Tween-80 94 % of control and 105 % of control | endpoint: mean survival time, dose: 100.0 mg/kg/injection, schedule: Q01DX009 (ip), vehicle: saline with Tween-80 103 % of control and 110 % of control | endpoint: mean survival time, dose: 200.0 mg/kg/injection, schedule: Q01DX009 (ip), vehicle: saline with Tween-80 95 % of control | endpoint: mean survival time, dose: 400.0 mg/kg/injection, schedule: Q01DX009 (ip), vehicle: saline with Tween-80 94 % of control
